For data set [1], the system named is RAW264.7. The data set can be described thus: Antiosteoclast activity in mouse RAW264.7 cells assessed as inhibition of RANKL-induced osteoclast differentiation at 20 uM after 5 days by TRAP assay. The data set is classed as functional. The following applies: RAW264.7, 120 h.
Data set [2] is described as follows: Cytotoxicity against mouse RAW264.7 cells assessed as inhibition of cell viability at 5 uM after 24 hrs by MTT assay. The class given is cell-based. The following applies: read-out: INH.
Data set [3] in a line: Cytotoxicity against mouse RAW264.7 cells assessed as inhibition of cell viability at 20 uM after 24 hrs by MTT assay. The data set is classed as cell-based. The following applies: read-out: INH. On the technique in general: Formazan colour is commonly taken as a measure of viable cells.
Data set [4] in a line: Cytotoxicity against mouse RAW264.7 cells assessed as inhibition of cell viability at 2 uM after 24 hrs by MTT assay. The data set is classed as cell-based. The note with it: read-out: INH.
For data set [5], the system named is RAW264.7. The data set is described as follows: cells. The following applies: Mus musculus, RAW264.7, 120 h.
Description: Antiosteoclast activity in mouse RAW264.7 cells assessed as inhibition of RANKL-induced osteoclast differentiation after 5 days by TRAP assay
For data set [6], the system named is RAW264.7. The data set is described as follows: Antiosteoclast activity in mouse RAW264.7 cells assessed as inhibition of RANKL-induced osteoclast differentiation at 2 uM after 5 days by TRAP assay. The class given is functional. The following applies: RAW264.7, 120 h.
Data set [7] can be described thus: Cytotoxicity against mouse RAW264.7 cells assessed as inhibition of cell viability at 10 uM after 24 hrs by MTT assay. The data set is classed as cell-based. The following applies: read-out: INH.
Another data set has as its system Rattus norvegicus. The data set can be described thus: Antiosteoporotic effect in ovariectomy rat model assessed as increase in bone mineral density of lumbar spine L3 to L5 at 1 mg/kg/day, po administered for 4 weeks by dual-energy X-ray absorptiometry relative to control. The class given is functional, organism-based.

The source made the active and inactive calls. The rule behind the calls is not given here.

Regarding `CC1(C)CC[C@]2(C(=O)NCCN3CCCCC3)CC[C@]3(C)C(=CC[C@@H]4[C@@]5(C)Cc6cn(S(=O)(=O)c7ccc(F)cc7)nc6C(C)(C)[C@@H]5CC[C@]43C)[C@@H]2C1`, the inhibition (as a rule, the share of the control response that was lost under treatment) at 20 µM in the data set with RAW264.7 [1] amounted to 100%. The cytotoxicity at 24 h, 5 µM in data set [2] was determined as 0%. Further, the cytotoxicity at 24 h, 20 µM in data set [3] is 70.8%. Also, the cytotoxicity at 24 h, 2 µM in data set [4] worked out at 0%. Besides, in the data set on RAW264.7 [5], the IC50 (in general, the midpoint of a concentration-inhibition curve) came out at 0.043 µM. Further, the inhibition at 2 µM in the data set with RAW264.7 [6] is 100%. In data set [7], the cytotoxicity at 24 h, 10 µM was determined as 74%.
For the compound `CC1(C)CC[C@]2(C(=O)NCCN3CCCCC3)CC[C@]3(C)C(=CC[C@@H]4[C@@]5(C)Cc6c[nH]nc6C(C)(C)[C@@H]5CC[C@]43C)[C@@H]2C1`, in the data set on RAW264.7 [1], the inhibition at 20 µM is 100%. In data set [2], the cytotoxicity at 24 h, 5 µM came to 0%. Also, the cytotoxicity at 24 h, 20 µM in data set [3] turned out to be 0%. Further, the cytotoxicity at 24 h, 2 µM in data set [4] worked out at 0%. Moreover, half-maximal inhibition in the data set on RAW264.7 [5] (IC50) required 0.099 µM. The inhibition at 2 µM with RAW264.7 [6] was determined as 95.1%. For the same compound, the cytotoxicity at 24 h, 10 µM in data set [7] was determined as 0%.
For the compound `COc1ccc(S(=O)(=O)n2cc3c(n2)C(C)(C)[C@@H]2CC[C@]4(C)[C@H](CC=C5[C@@H]6CC(C)(C)CC[C@]6(C(=O)NCCN6CCCCC6)CC[C@]54C)[C@@]2(C)C3)cc1`, in the data set on RAW264.7 [1], the inhibition at 20 µM worked out at 100%. Moreover, the cytotoxicity at 24 h, 5 µM in data set [2] amounted to 0%. Also, the cytotoxicity at 24 h, 20 µM in data set [3] was 72.9%. Moreover, the cytotoxicity at 24 h, 2 µM in data set [4] is 0%. The compound further yielded an IC50 with RAW264.7 [5] of 0.088 µM. The inhibition at 2 µM with RAW264.7 [6] worked out at 100%. Besides, the cytotoxicity at 24 h, 10 µM in data set [7] is 67.5%.
With `CC1(C)CC[C@]2(C(=O)NCCN3CCCCC3)CC[C@]3(C)C(=CC[C@@H]4[C@@]5(C)Cc6cn(S(=O)(=O)c7ccc(Br)cc7)nc6C(C)(C)[C@@H]5CC[C@]43C)[C@@H]2C1`, the inhibition at 20 µM in the data set on RAW264.7 [1] worked out at 100%. In addition, in data set [2], the cytotoxicity at 24 h, 5 µM was determined as 0%. The cytotoxicity at 24 h, 20 µM in data set [3] came to 70.8%. In data set [4], the cytotoxicity at 24 h, 2 µM is 0%. Further, 0.078 µM corresponded to half-maximal inhibition in the data set on RAW264.7 [5] (IC50). Moreover, the inhibition at 2 µM in the data set on RAW264.7 [6] is 100%. Besides, the cytotoxicity at 24 h, 10 µM in data set [7] is 67.2%.
Turning to `NCCCC(O)(P(=O)(O)O)P(=O)(O)O` [ALENDRONATE SODIUM], the result with Rattus norvegicus was Active. The IC50 in the data set on RAW264.7 [5] came to 0.084 µM. Further, the inhibition at 2 µM with RAW264.7 [6] amounted to 93.2%.
Regarding `COc1ccc(S(=O)(=O)n2cc3c(n2)C(C)(C)[C@@H]2CC[C@]4(C)[C@H](CC=C5[C@@H]6CC(C)(C)CC[C@]6(C(=O)NCCN6CCCCC6)CC[C@]54C)[C@@]2(C)C3)cc1OC`, the inhibition at 20 µM in the data set on RAW264.7 [1] was 100%. Further, the cytotoxicity at 24 h, 5 µM in data set [2] is 0%. For the same compound, in data set [3], the cytotoxicity at 24 h, 20 µM worked out at 71.1%. Besides, the cytotoxicity at 24 h, 2 µM in data set [4] amounted to 0%. In the data set on RAW264.7 [5], this compound returned an IC50 of 0.13 µM. The inhibition at 2 µM in the data set with RAW264.7 [6] came out at 100%. In addition, the cytotoxicity at 24 h, 10 µM in data set [7] came out at 52.6%.
Consider `COc1ccc(S(=O)(=O)n2cc3c(n2)C(C)(C)[C@@H]2CC[C@]4(C)[C@H](CC=C5[C@@H]6CC(C)(C)CC[C@]6(C(=O)NC6CCN(Cc7ccccc7)CC6)CC[C@]54C)[C@@]2(C)C3)cc1OC`, for which the inhibition at 20 µM in the data set on RAW264.7 [1] was determined as 100%. Besides, the cytotoxicity at 24 h, 5 µM in data set [2] is 0%. Moreover, in data set [3], the cytotoxicity at 24 h, 20 µM was determined as 0%. For the same compound, the cytotoxicity at 24 h, 2 µM in data set [4] is 0%. For the same compound, in the data set with RAW264.7 [5], inhibition was half-maximal at 0.035 µM (IC50). Besides, the inhibition at 2 µM in the data set with RAW264.7 [6] amounted to 93.2%. The cytotoxicity at 24 h, 10 µM in data set [7] stood at 0%.

Values taken from ChEMBL document CHEMBL3784938, “Novel heterocyclic ring-fused oleanolic acid derivatives as osteoclast inhibitors for osteoporosis” (Medchemcomm, 2016).
